From patent publication US6306907A, “Antipsychotic” (Taiyo Fishery Co., Ltd., priority 1992, dated 2001)

Legend:
[1] = test system: NMDA receptors; assay: Electrophysiological patch clamp test of the NMDA-induced current in hippocampal CA1 neurons; type: cell-based, rat
Experimental: Under the circumstances, the effects of docosahexaenoic acid on NMDA receptors of PCP were investigated.
The investigation was conducted by an electrophysiological procedure. More specifically, the brain of a 2-week-old rat was delivered and slices were prepared. Then, neurons were taken from the hippocampal CA1 region and used as samples. An electrophysiological test was conducted by a patch clamp method under fixed potential conditions.

[2] = test system: negative symptoms of schizophrenia; assay: One-month oral administration to subjects, compared with placebo; type: in vivo; conditions: human, oral 300 mg three times a day
Experimental: Sixteen subjects aged from 35 to 60 were treated with either the antipsychotic of the present invention or a placebo. Eleven out of these sixteen subjects had been treated with chlorpromazine and haloperidol in the past. Eight subjects were treated with the antipsychotic of the present invention and the other eight were treated with the placebo.
Docosahexaenoic acid or placebo was orally administered to the subjects three times a day, each in a dose of 300 mg.

Structure (SMILES): CN[C@H](CC(=O)O)C(=O)O [NMDA, N-methyl-D-aspartic acid]
- inward current caused by NMDA ([1]; 30 μM NMDA, holding potential -50 mV, rat hippocampal CA1 neurons): 300 pA

Structure (SMILES): c1ccc(C2(N3CCCCC3)CCCCC2)cc1 [PCP, phencyclidine]
- change of NMDA-induced current on treatment with PCP ([1]; 5 μM PCP and 30 μM NMDA): decreased by half

Structure (SMILES): CC/C=C\C/C=C\C/C=C\C/C=C\C/C=C\C/C=C\CCC(=O)O [docosahexaenoic acid]
- primary side effects [2]: neither primary side effects
- variations in biochemical blood and urine tests [2]: nor significant variations in biochemical blood and urine tests
